Measured values from ChEMBL document CHEMBL1201862, “PubChem BioAssay data set” (2004).
Activity calls are given as the source filed them.

Key:
Format in all cases: functional
[1] = Luminescence Cell-Based Dose Retest to Confirm Inhibitors of Cancer Stem Cells. [Related pubchem assays (depositor defined):AID2717, AID2721]; settings: Homo sapiens
[2] = target: Intestinal-type alkaline phosphatase (Mus musculus, UniProt P24822); test: PubChem AID 488875
[3] = target: T1, Intestinal-type alkaline phosphatase (Homo sapiens, UniProt P09923); test: human intestinal alkaline phosphatase activators, dose response, biochemical, luminescence, uHTS hits (AID 463120)
[4] = target: T1, Intestinal-type alkaline phosphatase; test: human IAP activators, dose response, biochemical, luminescent, uHTS hits, set 2 (AID 488817);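 further: potency of activators that raise enzyme activity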
[5] = target: T2, Alkaline phosphatase, tissue-nonspecific isozyme (Homo sapiens, UniProt P05186); test: TNAP enzyme activators, dose response, selectivity assay for human IAP activator project, biochemical, TNAP isozyme, human IAP uHTS hits (AID 488886);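 further: potency of compounds raising TNAP activity as a selectivity check on IAP activators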
T2 sequence (P05186 whole entry): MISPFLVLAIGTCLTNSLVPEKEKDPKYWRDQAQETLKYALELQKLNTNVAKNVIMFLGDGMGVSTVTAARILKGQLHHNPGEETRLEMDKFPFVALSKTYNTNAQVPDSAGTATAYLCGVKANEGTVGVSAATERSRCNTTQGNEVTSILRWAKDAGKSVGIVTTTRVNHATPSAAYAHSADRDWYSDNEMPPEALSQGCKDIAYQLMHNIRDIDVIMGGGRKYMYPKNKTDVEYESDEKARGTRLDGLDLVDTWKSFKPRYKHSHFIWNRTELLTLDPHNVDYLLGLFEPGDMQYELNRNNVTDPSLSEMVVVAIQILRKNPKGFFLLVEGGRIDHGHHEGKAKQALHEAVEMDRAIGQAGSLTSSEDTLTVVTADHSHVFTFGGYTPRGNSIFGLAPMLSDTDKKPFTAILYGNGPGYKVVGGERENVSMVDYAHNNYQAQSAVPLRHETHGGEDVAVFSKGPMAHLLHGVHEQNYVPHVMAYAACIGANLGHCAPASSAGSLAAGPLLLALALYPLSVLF

[6] = target: T3, Replicative DNA helicase DnaB (Mycobacterium tuberculosis, UniProt P9WMR3); test: DnaB intein splicing inhibitors, dose response, biochemical, cell-free fluorescence (AID 449749)
T3 sequence (P9WMR3 whole entry): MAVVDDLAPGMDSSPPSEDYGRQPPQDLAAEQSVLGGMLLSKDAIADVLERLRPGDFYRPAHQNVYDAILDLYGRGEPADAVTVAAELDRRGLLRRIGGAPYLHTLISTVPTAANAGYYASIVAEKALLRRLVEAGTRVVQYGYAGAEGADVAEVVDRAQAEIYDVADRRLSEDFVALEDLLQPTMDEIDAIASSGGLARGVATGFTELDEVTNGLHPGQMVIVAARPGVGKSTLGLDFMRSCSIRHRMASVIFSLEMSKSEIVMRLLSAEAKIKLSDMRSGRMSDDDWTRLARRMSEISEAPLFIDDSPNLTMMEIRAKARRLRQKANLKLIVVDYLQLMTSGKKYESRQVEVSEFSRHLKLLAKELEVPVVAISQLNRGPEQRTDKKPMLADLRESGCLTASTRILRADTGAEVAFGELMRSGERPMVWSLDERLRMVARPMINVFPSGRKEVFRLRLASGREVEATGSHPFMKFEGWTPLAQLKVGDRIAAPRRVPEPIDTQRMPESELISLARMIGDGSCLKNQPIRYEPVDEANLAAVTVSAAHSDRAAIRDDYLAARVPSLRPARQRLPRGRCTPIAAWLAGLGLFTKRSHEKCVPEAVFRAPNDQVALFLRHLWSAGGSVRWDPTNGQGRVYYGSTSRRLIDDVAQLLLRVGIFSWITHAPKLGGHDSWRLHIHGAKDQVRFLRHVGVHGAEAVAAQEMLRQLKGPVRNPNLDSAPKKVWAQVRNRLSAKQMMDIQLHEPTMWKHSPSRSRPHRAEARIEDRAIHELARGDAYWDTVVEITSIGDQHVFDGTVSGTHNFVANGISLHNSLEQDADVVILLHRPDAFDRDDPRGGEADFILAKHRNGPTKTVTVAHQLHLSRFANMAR

[7] = target: T4, High affinity choline transporter 1 (Homo sapiens, UniProt Q9GZV3); test: CHT inhibitors, dose response, cell-based, 5-point CRC, membrane potential dye (AID 504840)
T4 sequence (Q9GZV3 whole entry): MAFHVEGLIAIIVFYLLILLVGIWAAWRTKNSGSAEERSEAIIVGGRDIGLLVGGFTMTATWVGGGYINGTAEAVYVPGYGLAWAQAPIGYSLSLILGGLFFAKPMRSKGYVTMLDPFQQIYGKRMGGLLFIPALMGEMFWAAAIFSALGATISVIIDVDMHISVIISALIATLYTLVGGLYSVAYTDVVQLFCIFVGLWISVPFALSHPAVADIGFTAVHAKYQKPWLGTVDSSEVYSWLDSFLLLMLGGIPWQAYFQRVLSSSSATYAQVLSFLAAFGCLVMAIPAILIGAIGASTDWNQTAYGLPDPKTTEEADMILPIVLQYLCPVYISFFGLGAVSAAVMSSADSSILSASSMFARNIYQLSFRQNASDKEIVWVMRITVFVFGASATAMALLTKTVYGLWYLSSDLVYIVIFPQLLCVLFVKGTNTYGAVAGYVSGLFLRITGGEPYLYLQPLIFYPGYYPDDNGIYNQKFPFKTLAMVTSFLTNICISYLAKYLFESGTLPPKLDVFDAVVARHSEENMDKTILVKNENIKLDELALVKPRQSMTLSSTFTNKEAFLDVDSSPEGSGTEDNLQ

Protein RecA = target: T5, Protein RecA (Mycobacterium tuberculosis, UniProt P9WHJ3); test: Fluorescence Cell-Free Homogeneous Dose Retest to Identify Inhibitors of RecA-Intein Splicing Activity. [Related pubchem assays (depositor defined):AID2097, AID2223, AID489010, AID492950]
T5 sequence (P9WHJ3 whole entry): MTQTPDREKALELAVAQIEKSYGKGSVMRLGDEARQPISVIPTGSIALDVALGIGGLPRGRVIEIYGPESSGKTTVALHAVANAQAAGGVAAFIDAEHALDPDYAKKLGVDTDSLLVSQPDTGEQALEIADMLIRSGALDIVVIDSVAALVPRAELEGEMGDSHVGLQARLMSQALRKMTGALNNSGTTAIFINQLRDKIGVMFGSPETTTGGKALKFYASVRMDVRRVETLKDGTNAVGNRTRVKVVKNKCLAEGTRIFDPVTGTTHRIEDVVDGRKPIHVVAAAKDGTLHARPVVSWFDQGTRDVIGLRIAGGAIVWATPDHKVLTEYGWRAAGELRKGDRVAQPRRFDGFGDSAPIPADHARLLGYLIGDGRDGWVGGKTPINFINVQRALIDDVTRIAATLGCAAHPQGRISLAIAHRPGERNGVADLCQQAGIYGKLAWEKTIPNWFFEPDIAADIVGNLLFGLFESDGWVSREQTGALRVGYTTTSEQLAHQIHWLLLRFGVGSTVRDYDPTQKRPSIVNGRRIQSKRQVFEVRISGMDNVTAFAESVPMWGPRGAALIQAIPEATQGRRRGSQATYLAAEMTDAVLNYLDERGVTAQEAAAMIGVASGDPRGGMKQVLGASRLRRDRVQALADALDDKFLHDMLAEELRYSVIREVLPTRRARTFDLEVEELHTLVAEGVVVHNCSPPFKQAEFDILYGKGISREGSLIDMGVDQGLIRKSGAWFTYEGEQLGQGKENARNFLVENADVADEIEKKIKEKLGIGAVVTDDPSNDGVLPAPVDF

T1 sequence (P09923 whole entry): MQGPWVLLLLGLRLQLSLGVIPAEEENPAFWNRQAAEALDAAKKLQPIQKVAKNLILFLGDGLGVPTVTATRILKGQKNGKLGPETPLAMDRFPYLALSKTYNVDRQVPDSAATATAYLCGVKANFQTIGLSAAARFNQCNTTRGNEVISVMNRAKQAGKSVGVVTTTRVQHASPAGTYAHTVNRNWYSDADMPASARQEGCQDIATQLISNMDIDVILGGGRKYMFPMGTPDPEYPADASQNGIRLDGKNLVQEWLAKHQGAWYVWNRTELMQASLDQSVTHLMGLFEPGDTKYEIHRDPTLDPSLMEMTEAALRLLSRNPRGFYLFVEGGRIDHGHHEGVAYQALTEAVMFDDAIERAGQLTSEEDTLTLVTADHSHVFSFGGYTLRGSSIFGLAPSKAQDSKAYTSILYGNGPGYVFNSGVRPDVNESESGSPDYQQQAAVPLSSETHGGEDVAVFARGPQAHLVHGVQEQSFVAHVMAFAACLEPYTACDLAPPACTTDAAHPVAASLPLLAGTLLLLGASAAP
Sequence of Intestinal-type alkaline phosphatase (Mus musculus, UniProt P24822) (P24822 whole entry): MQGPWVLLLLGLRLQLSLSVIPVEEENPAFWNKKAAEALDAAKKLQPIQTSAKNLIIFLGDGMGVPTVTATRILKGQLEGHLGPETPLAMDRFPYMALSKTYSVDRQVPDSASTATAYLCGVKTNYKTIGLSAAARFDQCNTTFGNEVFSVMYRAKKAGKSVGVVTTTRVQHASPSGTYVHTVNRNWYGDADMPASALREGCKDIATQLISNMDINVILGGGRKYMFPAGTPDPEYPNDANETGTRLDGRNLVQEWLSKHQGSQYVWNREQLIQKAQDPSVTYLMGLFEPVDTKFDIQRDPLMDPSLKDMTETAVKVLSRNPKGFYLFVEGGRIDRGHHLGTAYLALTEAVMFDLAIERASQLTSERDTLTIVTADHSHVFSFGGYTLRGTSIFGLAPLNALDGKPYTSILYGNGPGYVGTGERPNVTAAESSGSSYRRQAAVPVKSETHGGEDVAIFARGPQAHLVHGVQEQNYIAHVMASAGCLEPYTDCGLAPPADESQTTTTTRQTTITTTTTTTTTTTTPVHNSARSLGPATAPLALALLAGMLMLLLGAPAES

Cc1cc(C)cc(CC(Cc2nc3ccccc3[nH]2)c2nc3ccccc3[nH]2)c1 (stereo not drawn)
active: AC50 [1] 6.69 µM | EC50 [2] 26.6 µM | EC50 [3] 65.7 µM | EC50 [4] 55.6 µM | EC50 [5] 69.7 µM | AC50 [6] 8.31 µM | IC50 [7] 15.8 µM | EC50 (Protein RecA) 83 µM
